Results on 2 compounds are retold here after patent US20070249705A1, “N-(1-(2,3-Dihydro-1H-Inden-5Yl)-2-Oxo-3-Pyrrolidinyl)-Sulfonamide Derivatives for Use as Factor Xa Inhibitors” (priority 2004, published 2007).

The target in this assay is human Factor Xa (Homo sapiens, UniProt P00742). The assay is described as follows: In vitro fluorogenic assay for inhibition of Factor Xa. The assay is classed as biochemical. Conditions: Ki = IC50/1.6. On the procedure: In Vitro Assay for Inhibition of Factor Xa
human Factor Xa, sequence (P00742 235-488 limits assumed): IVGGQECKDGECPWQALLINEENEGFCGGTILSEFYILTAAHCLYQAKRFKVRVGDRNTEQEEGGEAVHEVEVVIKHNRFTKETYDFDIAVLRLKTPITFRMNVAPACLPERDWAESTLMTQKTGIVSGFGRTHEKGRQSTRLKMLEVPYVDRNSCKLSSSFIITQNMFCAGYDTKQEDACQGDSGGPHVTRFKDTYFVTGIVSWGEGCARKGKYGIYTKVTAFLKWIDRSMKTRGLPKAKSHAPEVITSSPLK
human Factor Xa, sequence (P00742 41-179 partner limits assumed): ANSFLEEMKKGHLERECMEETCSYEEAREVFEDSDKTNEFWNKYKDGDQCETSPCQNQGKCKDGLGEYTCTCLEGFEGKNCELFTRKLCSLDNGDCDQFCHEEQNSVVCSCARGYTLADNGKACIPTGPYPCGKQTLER
Compounds of the present invention were tested for their Factor Xa inhibitory activity as determined in vitro by their ability to inhibit human Factor Xa in a fluorogenic assay, using Rhodamine 110, bis-CBZ-glycylglycyl-L-arginine amide as the fluorogenic substrate. Compounds were diluted from a 10 mM stock solution in dimethylsulfoxide at appropriate concentrations. Assay was performed at room temperature using buffer consisting of: 50 mM Tris-HCl, 150 mM NaCl, 5 mM CaCl2, pH 7.4 containing human Factor Xa (final concentration of 0.0003 U.ml-1). Compound and enzyme were preincubated for 15 min prior to addition of the substrate (final concentration of 10 μM). The reaction was stopped after 3 hrs with the addition of H-D-Phe-Pro-Arg-Chloromethylketone. An LJL-Analyst fluorimeter was used to monitor fluorescence with 485 nm excitation/535 nm emission. To obtain IC50 values the data were analysed using ActivityBase® and XLfit®.
Calculation of Ki values:
Ki=IC50/(1+[Substrate]/Km)
The Ki value for the above assay can be obtained by dividing the IC50 value by 1.6.

Consider `CN(C)C1CCc2cc(N3CCC(NS(=O)(=O)c4cc5ccc(Cl)cc5s4)C3=O)ccc21` (centres unmarked) [Example 3, 6-Chloro-N-{1-[1-(dimethylamino)-2,3-dihydro-1H-inden-5-yl]-2-oxo-3-pyrrolidinyl}-1-benzothiophene-2-sulfonamide], for which the Ki is under 50 nM.
`CNC1CCc2cc(N3CC[C@H](N(C)S(=O)(=O)c4ccc5cc(Cl)ccc5c4)C3=O)ccc21` (stereo partly drawn) [Example 12, 6-Chloro-N-methyl-N-{(3S)-1-[1-(methylamino)-2,3-dihydro-1H-inden-5-yl]-2-oxo-3-pyrrolidinyl}-2-naphthalenesulfonamide] returned a Ki of under 50 nM.

As usually defined, the Ki is a dissociation constant, usually derived from enzyme kinetics or from competition with a known ligand.
